This is an account of results in patent US6794126B2, “Methods for preventing or inhibiting neuronal cell death” (The Trustees of Columbia University in the City of New York, priority 1996, dated 2004).

Data set [1] has as its system PC12 cells. The experiment in a line: PC12 cell survival after SOD1 down-regulation by V-ASOD1. The class given is cell-based, rat. How it is done: (§1) PC12 cells were grown as previously described (Greene and Tishcler, 1976) on rat-tail collagen-coated dishes in RPMI 1640 medium containing 5% fetal calf serum and 10% heat-inactivated horse serum (complete medium). NGF primed PC12 cells were grown for at least 7 days in RPMI 1640 medium plus 1% horse serum and NGF (100 ng/ml). For cell survival assays involving trophic factor deprivation, cells (either naive or NGF-pretreated) were extensively washed in serum-free RPMI 1640 medium and re-plated on fresh collagen-coated 24-well dishes as previously described (Rukenstein et al., 1991) in RPMI 1640 medium lacking serum or NGF. For SOD1 down-regulation survival assays, cells were re-plated in complete medium with V-ASOD1 (vector linked antisense oligonucleotide to SOD1, 50 nM). Various concentrations of ICE inhibitors were included in the medium as indicated. Numbers of viable cells per culture were determined by quantifying intact nuclei as previously described (Rukenstein et al., 1991). Counts were performed in triplicate and reported as means±SEM.

Data set [2] deals with PC12 cells. The experiment in a line: Addition of rhIL-1β to PC12 cultures in the presence of NGF, insulin or serum. The class given is cell-based. The settings on record: 1 μg/ml. How it is done: as §1
In data set [3] the test system is sympathetic neurons. Description: Survival of sympathetic neurons exposed to UV irradiation. Format: cell-based, rat. The settings on record: 200 nM, pretreated 18 hr. How it is done: Cells were exposed to UV irradiation using the Stratolinker UV crosslinker (Stratagene®). Sympathetic neurons were exposed to 3×10^4 μJ while neuronal PC12 cells were exposed to […]. Each well was exposed with 200 μl of medium containing NGF with or without the appropriate drug. After irradiation 300 μl of additional medium containing NGF with or without drug was added.
(§2) The cells were plated onto collagen-coated 24-well dishes at a density of approximately 0.5 ganglia per well and maintained in RPMI 1640 medium supplemented with 10% heat-inactivated horse serum and 60 ng/ml mouse NGF for a period of three days prior to the survival experiment. A mixture of uridine and 5-fluorodeoxyuridine (10 mM each) was also added to eliminate non-neuronal cells on day two. No pretreatment with survival agent, unless otherwise noted, was necessary for effective survival of neurons exposed to AraC. In the case of UV irradiation, the neurons died quite rapidly. Accordingly, neuronal cultures were pretreated overnight (18 hr) with survival-promoting agents prior to UV irradiation. NGF deprivation was performed by washing with NGF-free medium and addition of anti-NGF antiserum as previously described (Park et al., 1996a). V-ASOD1 oligonucleotides, in conjunction with the nitric oxide generator, S-nitrosopenicillamine (SNAP; 100 μM) were added to the cultured sympathetic neurons as previously described (Troy et al., 1997). At appropriate times, the numbers of viable, phase bright neurons were determined by strip counting as previously described (Rydel and Greene; 1988). All experimental points are expressed relative to the original number of neurons present in each well and are reported as mean+/−SEM (n=3).

For data set [4], the system named is sympathetic neurons. The experiment in a line: Survival of sympathetic neurons deprived of NGF (Example 2). Format: cell-based, rat. The note with it: 200 nM, pretreated 18 hr. On the procedure: as §2
The test system of data set [5] is sympathetic neurons. Description: Survival of cultured sympathetic neurons after NGF withdrawal (Example 1). The settings on record: 50 nM, NGF-deprived. Format: cell-based, rat. How it is done: Sympathetic neuron cultures were prepared from 2 day old rat pups, as previously described (Ferrari et al., 1995). Cultures were grown in 24-well collagen coated dishes in RPMI 1640 medium plus 10% horse serum with mouse NGF (100 ng/ml). One day following plating, uridine and 5-fluorodeoxyuridine (10 μM each) were added to the cultures and left for three days to eliminate non-neuronal cells. On the sixth day following plating NGF was removed by washing the cultures three times with RPMI 1640 medium plus 10% horse serum, followed by the addition of medium containing anti-mouse NGF (1:200, Sigma) with or without ICE inhibitors. Each culture was scored, as previously described (Rydel and Greene, 1988), as numbers of living, phase-bright neurons at various times. Three replicate cultures were assessed for each condition and data were normalized to numbers of neurons present in each culture at the time of NGF withdrawal and reported as mean±SEM.

In data set [6] the test system is sympathetic neurons. The experiment in a line: Survival of sympathetic neurons exposed to camptothecin. The note with it: V-linked peptides. Format: cell-based, rat.
Data set [7] has as its system PC12 cells. The experiment in a line: PC12 cell survival after withdrawal of serum/NGF (trophic factor deprivation). The class given is cell-based, rat. The settings on record: naive and primed PC12 cells, serum/NGF withdrawal. How it is done:
as §1

In data set [8] the test system is sympathetic neurons. The experiment in a line: Survival of sympathetic neurons depleted of SOD1 (V-ASOD1 plus SNAP). Format: cell-based, rat. The note with it: V-linked peptides. On the procedure:
as §2

In data set [9] the test system is sympathetic neurons. The experiment in a line: Survival of sympathetic neurons treated with AraC. The class given is cell-based. The note with it: 200 nM, AraC 100 μM. On the procedure: A mixture of uridine and 5-fluorodeoxyuridine (10 mM each) was also added to eliminate non-neuronal cells on day two. No pretreatment with survival agent, unless otherwise noted, was necessary for effective survival of neurons exposed to AraC. In the case of UV irradiation, the neurons died quite rapidly. Accordingly, neuronal cultures were pretreated overnight (18 hr) with survival-promoting agents prior to UV irradiation. […] All experimental points are expressed relative to the original number of neurons present in each well and are reported as mean+/−SEM (n=3).

For another data set, the system named is IL-1β. The experiment in a line: Assay of IL-1β secreted by PC12 cells (ELISA). The settings on record: 24 h; V-ICEinh 25 nM for V-ASOD1 treatment. Format: cell-based, rat. How it is done:
IL-1β was quantified by ELISA using the Intertest-1βX kit (Genzyme, Cambridge, Mass.). PC12 cells were grown as described above, on 24-well plates, in 500 μl of medium. After one day incubation, medium was removed and IL-1β measured following the manufacturer's instructions, and number of viable cells in each well quantified.

As to “IL-1β: recombinant human IL-1β provided by the NCI”, the “effect of exogenous IL-1β on V-ASOD1 induced death” value in the data set on PC12 cells [1] (IL-1β 1 μg/ml with V-ASOD1 50 nM) was “potentiates the cell death”. For the same molecule, in the data set with PC12 cells [1] (IL-1β 1 μg/ml, V-ASOD1 50 nM, V-ICEinh 25 nM), the “effect of exogenous IL-1β on protection by V-ICEinh” value is reported as “abrogates the protection”. The “effect of exogenous IL-1β alone on cell death” value in the data set with PC12 cells [1] (IL-1β 1 μg/ml, no V-ASOD1) was “no effect”. In addition, the “cell death on addition to PC12 cultures” value in the data set on PC12 cells [2] was “did not produce cell death”.

Consider `CC[C@H](C)[C@H](N)C(=O)N[C@@H](CCC(N)=O)C(=O)N[C@@H](C)C(=O)N[C@@H](CSSC[C@H](N)C(=O)N[C@@H](CCCNC(=N)N)C(=O)N[C@@H](CCC(N)=O)C(=O)N[C@H](C(=O)N[C@@H](CCCCN)C(=O)N[C@H](C(=O)N[C@@H](Cc1c[nH]c2ccccc12)C(=O)N[C@@H](Cc1ccccc1)C(=O)N[C@@H](CCC(N)=O)C(=O)N[C@@H](CC(N)=O)C(=O)N[C@@H](CCCNC(=N)N)C(=O)N[C@@H](CCCNC(=N)N)C(=O)N[C@@H](CCSC)C(=O)N[C@@H](CCCCN)C(=O)N[C@@H](Cc1c[nH]c2ccccc12)C(=O)N[C@@H](CCCCN)C(=O)N[C@@H](CCCCN)C(=O)O)[C@@H](C)CC)[C@@H](C)CC)C(=O)N[C@@H](CCCNC(=N)N)C(=O)NCC(=O)O` [V-ICEinh], for which the “death of sympathetic neurons exposed to UV” value in the data set on sympathetic neurons [3] was “blocked death”. In addition, in the data set on sympathetic neurons [4], the “protection from NGF deprivation” value is “protected”. In addition, in the data set with sympathetic neurons [5], the “time for which death was retarded” value is on record as “at least 6 days” and the “time of complete protection from death” value was 3 days. For the same molecule, in the data set on PC12 cells [1], the “effect on the capacity of ASOD1 to lower cellular SOD1” value is recorded as “no effect”. For the same molecule, the “dose required for maximal protection” value with PC12 cells [1] (V-ASOD1 50 nM, one day) was in the range of 25 to 50 nM. Moreover, in the data set on PC12 cells [1] (naive and NGF-treated PC12 cells, V-ASOD1 50 nM, one day), the “protection from death induced by down-regulation of SOD1” value is listed as “protects”. Besides, the “death of sympathetic neurons exposed to camptothecin” value in the data set on sympathetic neurons [6] is listed as “blocked death”. In addition, the “time of partial protection” value in the data set with PC12 cells [7] is given as “at least 8 days”. Besides, in the data set with PC12 cells [7] (24 hours), the “peptide concentration giving complete protection from death” value was 200 to 400 nM. The “death of sympathetic neurons depleted of SOD1” value in the data set with sympathetic neurons [8] is “blocked death”. In the data set on sympathetic neurons [9], the “death of AraC-treated sympathetic neurons” value is recorded as “blocked death”. The “increase in IL-1β secretion per cell after SOD1 down-regulation” value in the data set with IL-1β is recorded as “blocked”.
